Source: patent US20190167619A1, “PHARMACEUTICAL FORMULATIONS AND THEIR USE” (SIGNUM BIOSCIENCES, INC., priority 2016, published 2019)

Experiments:
[1] = Stability of a formulation comprising the disodium salt after storage at 5° C., HPLC (Example 3); type: physicochemical
Protocol: The stability of a formulation comprising the disodium salt of 4-(((R)-1-carboxy-2-(((2E,6E)-3,7,11-trimethyldodeca-2,6,10-trien-1-yl)thio)ethyl)amino)-4-oxobutanoic acid was determined after storage at 5° C. for a period of 1 month, 2 months, 3 months, 6 months, 9 months, 12 months, 18 months, and 24 months. In each case, the percentage of 4-(((R)-1-carboxy-2-(((2E,6E)-3,7,11-trimethyldodeca-2,6,10-trien-1-yl)thio)ethyl)amino)-4-oxobutanoic acid remaining at each time point was determined by use of HPLC. Each of the percentages in the table below are expressed at the weight percentage of the component as compared to the total weight of the composition.

[2] = Stability of a formulation comprising the disodium salt after storage at 25° C., HPLC (Example 2); type: physicochemical
Protocol: The stability of a formulation comprising the disodium salt of 4-(((R)-1-carboxy-2-(((2E,6E)-3,7,11-trimethyldodeca-2,6,10-trien-1-yl)thio)ethyl)amino)-4-oxobutanoic acid was determined after storage at 25° C. for a period of 4 months, 6 months, 9 months and 12 months. […]

SMILES | weight percentage of the component as compared to the total weight of the composition ([1]; 1 month, storage at 5° C.) [weight percentage] | weight percentage of the component as compared to the total weight of the composition ([1]; 2 months, storage at 5° C.) [weight percentage] | weight percentage of the component as compared to the total weight of the composition ([1]; 3 months, storage at 5° C.) [weight percentage] | weight percentage of the component as compared to the total weight of the composition ([1]; 6 months, storage at 5° C.) [weight percentage] | weight percentage of the component as compared to the total weight of the composition ([1]; 9 months, storage at 5° C.) [weight percentage] | weight percentage of the component as compared to the total weight of the composition ([1]; 12 months, storage at 5° C.) [weight percentage] | weight percentage of the component as compared to the total weight of the composition ([1]; 18 months, storage at 5° C.) [weight percentage] | weight percentage of the component as compared to the total weight of the composition ([1]; 24 months, storage at 5° C.) [weight percentage] | weight percentage of the component as compared to the total weight of the composition ([1]; Initial) [weight percentage] | % age of sulfoxide of 4-(((R)-1-carboxy-2-(((2E,6E)-3,7,11-trimethyldodeca-2,6,10-trien-1-yl)thio)ethyl)amino)-4-oxobutanoic acid ([2]; Initial) [%] | % age of sulfoxide of 4-(((R)-1-carboxy-2-(((2E,6E)-3,7,11-trimethyldodeca-2,6,10-trien-1-yl)thio)ethyl)amino)-4-oxobutanoic acid ([2]; after 1 month, storage at 25° C.) [%] | % age of sulfoxide of 4-(((R)-1-carboxy-2-(((2E,6E)-3,7,11-trimethyldodeca-2,6,10-trien-1-yl)thio)ethyl)amino)-4-oxobutanoic acid ([2]; after 3 months, storage at 25° C.) [%] | % age of sulfoxide of 4-(((R)-1-carboxy-2-(((2E,6E)-3,7,11-trimethyldodeca-2,6,10-trien-1-yl)thio)ethyl)amino)-4-oxobutanoic acid ([2]; after 6 months, storage at 25° C.) [%] | % age of sulfoxide of 4-(((R)-1-carboxy-2-(((2E,6E)-3,7,11-trimethyldodeca-2,6,10-trien-1-yl)thio)ethyl)amino)-4-oxobutanoic acid ([2]; after 9 months, storage at 25° C.) [%]
COC(=O)c1ccc(O)cc1 [Methylparaben] | 0.17 | 0.17 | 0.17 | 0.18 | 0.17 | 0.17 | 0.17 | 0.15 | 0.17 | – | – | – | – | –
CCCOC(=O)c1ccc(O)cc1 [Propylparaben] | 0.032 | 0.032 | 0.033 | 0.032 | 0.033 | 0.032 | 0.033 | 0.030 | 0.034 | – | – | – | – | –
CC(C)=CCC/C(C)=C/CC/C(C)=C/CSC[C@H](NC(=O)CCC(=O)O)C(=O)O [4-(((R)-1-carboxy-2-(((2E,6E)-3,7,11-trimethyldodeca-2,6,10-trien-1-yl)thio)ethyl)amino)-4-oxobutanoic acid] | – | – | – | – | – | – | – | – | – | 0.037 | 0.031 | 0.113 | 0.053 | 0.134
